The numbers were not newly measured in patent EP2374448A1, “Oral film formulation” (Labtec GmbH, priority 2010, dated 2011), which cites them from elsewhere.

Where [1] appears, read: oral administration, overall range.

Like-named read-outs stand apart in the source and are kept apart here.

In the case of “4-(5-Methoxy-4-pyrimidinyl)-1-[3-[5-[[(methylamino)-sulfonyl]methyl]-1H-indole-3-yl]propyl]piperazine [Avitriptan]”, for the setting “in vivo, po”, the “Tmax after oral administration” value is listed as 0.25 - 1 (preferably 0.5) h.
On to `CN(C)CCc1c[nH]c2ccc(CS(=O)(=O)N3CCCC3)cc12` [Almotriptan, I-[[[3-[2-(dimethylamino)ethyl]-1H-indole-5-yl]methyl]sulfonyl]pyrrolidine], for which the “Tmax after oral administration” value under setting [1] is on record as 0.5 - 4 (preferably 1.0 - 3.0) h.
On to `CN1CCC[C@@H]1Cc1c[nH]c2ccc(CCS(=O)(=O)c3ccccc3)cc12` [Eletriptan, (R)-3-[(I-Methyl-2-pyrrolidinyl)methyl]-5-[2-(phenylsulfonyl)ethyl]-1H-indole], for which the “Tmax after oral administration” value under setting [1] is 1.0 - 3 (preferably 1.5 - 2.0) h.
As for `CN[C@@H]1CCc2[nH]c3ccc(C(N)=O)cc3c2C1` [Frovatriptan, (+)-(R)-3-methylamino-6-carboxamido-1,2,3,4-tetrahydrocarbazole], the “Tmax after oral administration” value under setting [1] was 0.5 - 4 (preferably 1.0 - 3.0) h.
In the case of `CN(C)CCc1c[nH]c2ccc(Cn3cncn3)cc12` [Rizatriptan, N,N-dimethyl-5-(IH-1,2,4-triazol-l-ylmethyl)-1H-indole-3-ethanamine], the “Tmax after oral administration” value under setting [1] was 0.5 - 3 (preferably 1.0 - 2.5) h.
As to `CNS(=O)(=O)Cc1ccc2[nH]cc(CCN(C)C)c2c1` [Sumatriptan, 3-[2-(dimethylamino)ethyl]-N-methyl-1H-indole-5-methanesulfonamide], the “Tmax after oral administration” value under setting [1] is 1.5 - 3 (preferably 2 - 2.5) h.
As for `CN(C)CCc1c[nH]c2ccc(C[C@H]3COC(=O)N3)cc12` [zolmitriptan, (S)-(4)-[[3-[2-(dimethylamino)ethyl]-1H-indole-5yl]methyl]-2-oxazolidinone], the “Tmax after oral administration” value is 2.5 to 3 h (oral administration, during attack); 1 to 2 h (oral administration, migraine free period); 1 to 4 h under setting [1].
Regarding “N-methyl-3-(1-methyl-4-piperidinyl)-1H-indole-5-ethanesulfonamide [Naratriptan]”, the “Tmax after oral administration” value (in vivo, po) is given as 1.5 - 4.5 (preferably 2.0 - 4.0) h.
